Source: ChEMBL document CHEMBL3885881, “DrugMatrix”

Species: Rattus norvegicus
Test: DrugMatrix - Regimen: Daily Repeat
Type: toxicity, organism-based, Sprague-Dawley
Design: regimen Daily Repeat, gender Male, age 6-8 weeks
Conditions: in vivo, sc, route subcutaneous, […]; for ABSOLUTE BASOPHIL / ABSOLUTE EOSINOPHIL / ABSOLUTE LYMPHOCYTE / ABSOLUTE MONOCYTE / ABSOLUTE SEGMENTED NEUTROPHIL / BASOPHIL / EOSINOPHIL / ERYTHROCYTE COUNT / HEMATOCRIT / HEMOGLOBIN / LEUKOCYTE COUNT / LYMPHOCYTE / MEAN CORPUSCULAR HEMOGLOBIN / MEAN CORPUSCULAR HEMOGLOBIN CONCENTRATION / MEAN CORPUSCULAR VOLUME / MONOCYTE / NEUTROPHIL / NUCLEATED RED BLOOD CELLS / PLATELET COUNT: tissue Blood; for ALANINE AMINOTRANSFERASE / ALBUMIN / ALKALINE PHOSPHATASE / ASPARTATE AMINOTRANSFERASE / BLOOD UREA NITROGEN / CARBON DIOXIDE / CHLORIDE / CHOLESTEROL / CREATINE PHOSPHOKINASE / CREATININE / GLUCOSE / LACTATE DEHYDROGENASE / LIPASE / PHOSPHORUS / POTASSIUM / SODIUM / TOTAL BILIRUBIN / TOTAL PROTEIN / URIC ACID: tissue Plasma
[1] = 260 mg/kg, 72 h, dose level Low, time 3 day
[2] = 260 mg/kg, 120 h, dose level Low, time 5 day
[3] = 2600 mg/kg, 72 h, dose level High, time 3 day
[4] = 2600 mg/kg, 120 h, dose level High, time 5 day

SMILES: c1ccc2sc(SSc3nc4ccccc4s3)nc2c1 [BENZOTHIAZYL DISULFIDE]
- ABSOLUTE BASOPHIL [1]: 0 CELLS/uL
- ABSOLUTE EOSINOPHIL [1]: 108 CELLS/uL
- ABSOLUTE LYMPHOCYTE [1]: 9435.33 CELLS/uL
- ABSOLUTE MONOCYTE [1]: 328 CELLS/uL
- ABSOLUTE SEGMENTED NEUTROPHIL [1]: 1062 CELLS/uL
- BASOPHIL [1]: 0%
- EOSINOPHIL [1]: 1%
- ERYTHROCYTE COUNT [1]: 5.25 x10E6/uL
- HEMATOCRIT [1]: 33.03%
- HEMOGLOBIN [1]: 12.27 G/DL
- LEUKOCYTE COUNT [1]: 10.93 x10E3/uL
- LYMPHOCYTE [1]: 86.33%
- MEAN CORPUSCULAR HEMOGLOBIN [1]: 23.33 pg
- MEAN CORPUSCULAR HEMOGLOBIN CONCENTRATION [1]: 37.13 G/DL
- MEAN CORPUSCULAR VOLUME [1]: 62.87 fL
- MONOCYTE [1]: 3%
- NEUTROPHIL [1]: 9.67%
- NUCLEATED RED BLOOD CELLS [1]: 0 /100WBC
- PLATELET COUNT [1]: 1377.33 x10E3/uL
- ALANINE AMINOTRANSFERASE [1]: 42 u/L
- ALBUMIN [1]: 3.87 G/DL
- ALKALINE PHOSPHATASE [1]: 365.33 u/L
- ASPARTATE AMINOTRANSFERASE [1]: 91.67 u/L
- BLOOD UREA NITROGEN [1]: 16 mg/dL
- CARBON DIOXIDE [1]: 26 mmol/L
- CHLORIDE [1]: 105.33 MEQ/L
- CHOLESTEROL [1]: 77.33 mg/dL
- CREATINE PHOSPHOKINASE [1]: 411.33 u/L
- CREATININE [1]: 0.21 mg/dL
- GLUCOSE [1]: 149.33 mg/dL
- LACTATE DEHYDROGENASE [1]: 600.33 u/L
- LIPASE [1]: 8.67 u/L
- PHOSPHORUS [1]: 12.73 mg/dL
- POTASSIUM [1]: 6.51 MEQ/L
- SODIUM [1]: 145.03 MEQ/L
- TOTAL BILIRUBIN [1]: 0.17 mg/dL
- TOTAL PROTEIN [1]: 5.4 G/DL
- URIC ACID [1]: 1.47 mg/dL
- ABSOLUTE BASOPHIL [2]: 0 CELLS/uL
- ABSOLUTE EOSINOPHIL [2]: 214.33 CELLS/uL
- ABSOLUTE LYMPHOCYTE [2]: 15055 CELLS/uL
- ABSOLUTE MONOCYTE [2]: 283.33 CELLS/uL
- ABSOLUTE SEGMENTED NEUTROPHIL [2]: 1280.67 CELLS/uL
- BASOPHIL [2]: 0%
- EOSINOPHIL [2]: 1.33%
- ERYTHROCYTE COUNT [2]: 5.49 x10E6/uL
- HEMATOCRIT [2]: 34.87%
- HEMOGLOBIN [2]: 13.17 G/DL
- LEUKOCYTE COUNT [2]: 16.83 x10E3/uL
- LYMPHOCYTE [2]: 89.33%
- MEAN CORPUSCULAR HEMOGLOBIN [2]: 24.1 pg
- MEAN CORPUSCULAR HEMOGLOBIN CONCENTRATION [2]: 37.8 G/DL
- MEAN CORPUSCULAR VOLUME [2]: 63.7 fL
- MONOCYTE [2]: 1.67%
- NEUTROPHIL [2]: 7.67%
- NUCLEATED RED BLOOD CELLS [2]: 0.67 /100WBC
- PLATELET COUNT [2]: 1489.67 x10E3/uL
- ALANINE AMINOTRANSFERASE [2]: 39 u/L
- ALBUMIN [2]: 3.93 G/DL
- ALKALINE PHOSPHATASE [2]: 463.33 u/L
- ASPARTATE AMINOTRANSFERASE [2]: 92.67 u/L
- BLOOD UREA NITROGEN [2]: 18.33 mg/dL
- CARBON DIOXIDE [2]: 28.33 mmol/L
- CHLORIDE [2]: 105.33 MEQ/L
- CHOLESTEROL [2]: 70.67 mg/dL
- CREATINE PHOSPHOKINASE [2]: 529 u/L
- CREATININE [2]: 0.19 mg/dL
- GLUCOSE [2]: 169 mg/dL
- LACTATE DEHYDROGENASE [2]: 102.33 u/L
- LIPASE [2]: 8 u/L
- PHOSPHORUS [2]: 12.13 mg/dL
- POTASSIUM [2]: 6.59 MEQ/L
- SODIUM [2]: 147.43 MEQ/L
- TOTAL BILIRUBIN [2]: 0.2 mg/dL
- TOTAL PROTEIN [2]: 5.63 G/DL
- URIC ACID [2]: 1.63 mg/dL
- ABSOLUTE BASOPHIL [3]: 0 CELLS/uL
- ABSOLUTE EOSINOPHIL [3]: 50.67 CELLS/uL
- ABSOLUTE LYMPHOCYTE [3]: 11758.67 CELLS/uL
- ABSOLUTE MONOCYTE [3]: 266.67 CELLS/uL
- ABSOLUTE SEGMENTED NEUTROPHIL [3]: 857.33 CELLS/uL
- BASOPHIL [3]: 0%
- EOSINOPHIL [3]: 0.33%
- ERYTHROCYTE COUNT [3]: 5.31 x10E6/uL
- HEMATOCRIT [3]: 32.77%
- HEMOGLOBIN [3]: 12.3 G/DL
- LEUKOCYTE COUNT [3]: 12.93 x10E3/uL
- LYMPHOCYTE [3]: 91.33%
- MEAN CORPUSCULAR HEMOGLOBIN [3]: 23.2 pg
- MEAN CORPUSCULAR HEMOGLOBIN CONCENTRATION [3]: 37.53 G/DL
- MEAN CORPUSCULAR VOLUME [3]: 61.7 fL
- MONOCYTE [3]: 2%
- NEUTROPHIL [3]: 6.33%
- NUCLEATED RED BLOOD CELLS [3]: 0 /100WBC
- PLATELET COUNT [3]: 1463.67 x10E3/uL
- ALANINE AMINOTRANSFERASE [3]: 24.33 u/L
- ALBUMIN [3]: 3.73 G/DL
- ALKALINE PHOSPHATASE [3]: 327.67 u/L
- ASPARTATE AMINOTRANSFERASE [3]: 90.67 u/L
- BLOOD UREA NITROGEN [3]: 16 mg/dL
- CARBON DIOXIDE [3]: 24 mmol/L
- CHLORIDE [3]: 104 MEQ/L
- CHOLESTEROL [3]: 76.33 mg/dL
- CREATINE PHOSPHOKINASE [3]: 376.67 u/L
- CREATININE [3]: 0.16 mg/dL
- GLUCOSE [3]: 151.67 mg/dL
- LACTATE DEHYDROGENASE [3]: 543.33 u/L
- LIPASE [3]: 8.33 u/L
- PHOSPHORUS [3]: 12 mg/dL
- POTASSIUM [3]: 6.59 MEQ/L
- SODIUM [3]: 145.13 MEQ/L
- TOTAL BILIRUBIN [3]: 0.3 mg/dL
- TOTAL PROTEIN [3]: 5.2 G/DL
- URIC ACID [3]: 1.63 mg/dL
- ABSOLUTE BASOPHIL [4]: 0 CELLS/uL
- ABSOLUTE EOSINOPHIL [4]: 0 CELLS/uL
- ABSOLUTE LYMPHOCYTE [4]: 11990.67 CELLS/uL
- ABSOLUTE MONOCYTE [4]: 262 CELLS/uL
- ABSOLUTE SEGMENTED NEUTROPHIL [4]: 914 CELLS/uL
- BASOPHIL [4]: 0%
- EOSINOPHIL [4]: 0%
- ERYTHROCYTE COUNT [4]: 5.81 x10E6/uL
- HEMATOCRIT [4]: 36.07%
- HEMOGLOBIN [4]: 13.33 G/DL
- LEUKOCYTE COUNT [4]: 13.17 x10E3/uL
- LYMPHOCYTE [4]: 91%
- MEAN CORPUSCULAR HEMOGLOBIN [4]: 22.97 pg
- MEAN CORPUSCULAR HEMOGLOBIN CONCENTRATION [4]: 36.97 G/DL
- MEAN CORPUSCULAR VOLUME [4]: 62.1 fL
- MONOCYTE [4]: 2%
- NEUTROPHIL [4]: 7%
- NUCLEATED RED BLOOD CELLS [4]: 0 /100WBC
- PLATELET COUNT [4]: 1293.33 x10E3/uL
- ALANINE AMINOTRANSFERASE [4]: 31 u/L
- ALBUMIN [4]: 3.6 G/DL
- ALKALINE PHOSPHATASE [4]: 266.33 u/L
- ASPARTATE AMINOTRANSFERASE [4]: 72 u/L
- BLOOD UREA NITROGEN [4]: 14.67 mg/dL
- CARBON DIOXIDE [4]: 26.33 mmol/L
- CHLORIDE [4]: 105.67 MEQ/L
- CHOLESTEROL [4]: 83 mg/dL
- CREATINE PHOSPHOKINASE [4]: 133 u/L
- CREATININE [4]: 0.23 mg/dL
- GLUCOSE [4]: 156 mg/dL
- LACTATE DEHYDROGENASE [4]: 67.67 u/L
- LIPASE [4]: 8.67 u/L
- PHOSPHORUS [4]: 12.23 mg/dL
- POTASSIUM [4]: 6.11 MEQ/L
- SODIUM [4]: 145.9 MEQ/L
- TOTAL BILIRUBIN [4]: 0.1 mg/dL
- TOTAL PROTEIN [4]: 5.63 G/DL
- URIC ACID [4]: 2 mg/dL
